The text below walks through data of ChEMBL document CHEMBL5212743, “Selectivity Literature for EUbOPEN Chemogenomics Library wave 3” (2023).

In test [1] the target is Phosphatidylinositol 4-kinase beta (Homo sapiens) (UniProt Q9UBF8). As to the kind of experiment: Selectivity interaction (KinomeScan (DiscoverX)) EUB0000707a PI4KB. To be noted: at 1 µM.
Test [2] deals with T1, Gamma-aminobutyric acid receptor subunit alpha-1 (Homo sapiens, UniProt P14867).
T1 sequence (P14867 whole entry): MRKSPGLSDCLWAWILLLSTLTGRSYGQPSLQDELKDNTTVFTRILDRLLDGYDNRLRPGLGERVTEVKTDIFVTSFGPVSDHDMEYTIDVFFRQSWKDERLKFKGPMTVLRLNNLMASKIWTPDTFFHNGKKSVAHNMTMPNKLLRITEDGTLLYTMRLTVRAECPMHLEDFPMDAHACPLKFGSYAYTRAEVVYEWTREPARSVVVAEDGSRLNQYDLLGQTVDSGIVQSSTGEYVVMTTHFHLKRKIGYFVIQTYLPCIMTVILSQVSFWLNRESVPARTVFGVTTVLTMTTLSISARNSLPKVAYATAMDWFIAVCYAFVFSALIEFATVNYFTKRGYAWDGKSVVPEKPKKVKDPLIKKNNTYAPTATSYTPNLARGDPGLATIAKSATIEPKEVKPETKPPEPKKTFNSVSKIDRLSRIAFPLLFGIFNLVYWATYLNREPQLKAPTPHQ
The experiment in a line: (§1) Selectivity interaction (GPCR panel (PDSP screen)) EUB0000707a GABRA1.

Test [3] concerns Hepatocyte growth factor receptor (Homo sapiens), P08581 [M1250T]. The experiment in a line: (§2) Selectivity interaction (KinomeScan (DiscoverX)) EUB0000707a MET. Conditions: at 1 µM.
Sequence of Hepatocyte growth factor receptor (Homo sapiens), P08581 [M1250T] (P08581 whole entry M1250T): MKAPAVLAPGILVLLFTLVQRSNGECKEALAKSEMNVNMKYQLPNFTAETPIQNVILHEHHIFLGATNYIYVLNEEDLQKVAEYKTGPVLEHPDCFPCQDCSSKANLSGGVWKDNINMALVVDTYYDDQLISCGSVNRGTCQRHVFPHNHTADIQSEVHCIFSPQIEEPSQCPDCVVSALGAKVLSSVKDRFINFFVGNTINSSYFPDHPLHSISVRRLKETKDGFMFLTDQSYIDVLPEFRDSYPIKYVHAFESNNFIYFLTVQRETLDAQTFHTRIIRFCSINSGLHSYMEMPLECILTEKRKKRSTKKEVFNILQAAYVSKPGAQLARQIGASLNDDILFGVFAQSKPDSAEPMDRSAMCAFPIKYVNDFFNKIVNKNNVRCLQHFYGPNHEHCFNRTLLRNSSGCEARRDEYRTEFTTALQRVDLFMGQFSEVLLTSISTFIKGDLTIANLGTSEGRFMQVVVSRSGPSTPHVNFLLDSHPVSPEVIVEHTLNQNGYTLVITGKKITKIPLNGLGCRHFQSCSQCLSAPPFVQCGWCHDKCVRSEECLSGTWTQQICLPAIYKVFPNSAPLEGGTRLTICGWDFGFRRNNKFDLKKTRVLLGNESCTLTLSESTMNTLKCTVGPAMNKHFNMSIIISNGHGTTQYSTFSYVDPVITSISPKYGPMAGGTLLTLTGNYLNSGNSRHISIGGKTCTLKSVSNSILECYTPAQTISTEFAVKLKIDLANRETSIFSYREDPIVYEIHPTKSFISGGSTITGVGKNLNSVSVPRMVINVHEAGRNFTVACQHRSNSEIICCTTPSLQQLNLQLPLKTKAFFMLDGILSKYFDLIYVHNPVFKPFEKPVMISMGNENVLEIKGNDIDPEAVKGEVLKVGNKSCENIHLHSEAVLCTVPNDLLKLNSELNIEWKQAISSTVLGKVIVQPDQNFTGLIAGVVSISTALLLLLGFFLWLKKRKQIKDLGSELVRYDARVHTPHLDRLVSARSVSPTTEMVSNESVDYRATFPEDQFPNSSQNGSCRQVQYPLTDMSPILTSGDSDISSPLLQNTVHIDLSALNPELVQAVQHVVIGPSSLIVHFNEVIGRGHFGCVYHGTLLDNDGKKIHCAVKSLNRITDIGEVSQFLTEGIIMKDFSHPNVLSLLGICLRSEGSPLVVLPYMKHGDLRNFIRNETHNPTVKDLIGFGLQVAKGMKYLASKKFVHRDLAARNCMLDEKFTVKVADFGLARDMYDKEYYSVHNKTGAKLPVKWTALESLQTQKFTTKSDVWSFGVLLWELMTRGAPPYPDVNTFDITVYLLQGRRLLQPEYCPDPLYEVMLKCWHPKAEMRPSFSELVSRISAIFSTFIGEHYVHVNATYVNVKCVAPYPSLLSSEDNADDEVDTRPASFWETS
The target in test [4] is Hepatocyte growth factor receptor (Homo sapiens) (UniProt P08581). The description is as §2. To be noted: at 1 µM.
The target in test [5] is Interleukin-1 receptor-associated kinase 4 (Homo sapiens) (UniProt Q9NWZ3). The experiment in a line: Selectivity interaction (KinomeScan (DiscoverX)) EUB0000707a IRAK4. Conditions: at 1 µM.
Test [6] addresses T1, Gamma-aminobutyric acid receptor subunit alpha-1. The description is as §1. This is another data set of the same source.
For test [7], the target named is MAP kinase-activated protein kinase 2 (Homo sapiens, UniProt P49137). As to the kind of experiment: Selectivity interaction (Enzyme panel (Invitrogen)) EUB0000730a MAPKAPK2.
Sequence of MAP kinase-activated protein kinase 2 (P49137 whole entry): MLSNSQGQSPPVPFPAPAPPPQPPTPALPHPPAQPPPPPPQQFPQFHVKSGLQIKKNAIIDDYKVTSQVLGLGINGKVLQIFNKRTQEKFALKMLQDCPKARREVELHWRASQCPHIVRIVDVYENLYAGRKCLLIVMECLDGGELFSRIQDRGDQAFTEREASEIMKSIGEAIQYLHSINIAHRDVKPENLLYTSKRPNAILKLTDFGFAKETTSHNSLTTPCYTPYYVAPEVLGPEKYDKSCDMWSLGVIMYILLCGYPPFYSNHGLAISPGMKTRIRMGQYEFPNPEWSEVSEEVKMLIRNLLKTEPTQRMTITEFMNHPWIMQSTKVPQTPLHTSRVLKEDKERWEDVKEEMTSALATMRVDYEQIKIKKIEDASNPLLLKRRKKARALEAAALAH
The next test concerns the target Interstitial collagenase (Homo sapiens, UniProt P03956). As to the kind of experiment: Selectivity interaction (MMPs panel (FRET assay)) EUB0000730a MMP1.
For the next test, the target named is T2, Matrilysin (Homo sapiens, UniProt P09237).
T2 sequence (P09237 whole entry): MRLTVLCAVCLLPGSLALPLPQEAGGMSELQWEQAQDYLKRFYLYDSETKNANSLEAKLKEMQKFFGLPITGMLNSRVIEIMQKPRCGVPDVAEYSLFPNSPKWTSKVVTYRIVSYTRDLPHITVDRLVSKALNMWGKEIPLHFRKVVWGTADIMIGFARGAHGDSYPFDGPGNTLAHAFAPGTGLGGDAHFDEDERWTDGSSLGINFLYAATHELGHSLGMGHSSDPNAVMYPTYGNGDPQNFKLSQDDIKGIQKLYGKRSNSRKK
The experiment in a line: Selectivity interaction (MMPs panel (FRET assay)) EUB0000730a MMP7.

For test [8], the target named is Cyclin-dependent kinase 3 (Homo sapiens) (UniProt Q00526). Conditions: at 100 nM.
Sequence of Cyclin-dependent kinase 3 (Homo sapiens) (Q00526 whole entry, looked up): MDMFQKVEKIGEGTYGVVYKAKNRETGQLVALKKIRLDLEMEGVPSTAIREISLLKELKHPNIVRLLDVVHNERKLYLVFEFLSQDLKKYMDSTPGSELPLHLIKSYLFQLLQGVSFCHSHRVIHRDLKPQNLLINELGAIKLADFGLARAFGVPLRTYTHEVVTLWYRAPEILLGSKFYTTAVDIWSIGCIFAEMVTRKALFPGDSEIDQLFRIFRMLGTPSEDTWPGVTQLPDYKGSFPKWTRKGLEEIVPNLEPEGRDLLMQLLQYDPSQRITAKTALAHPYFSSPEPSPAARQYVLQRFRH
Test [9] concerns the target Cyclin-dependent kinase 19 (Homo sapiens) (UniProt Q9BWU1). Conditions: at 100 nM.
In another test the target is Neutrophil collagenase (Homo sapiens, UniProt P22894). As to the kind of experiment: Selectivity interaction (MMPs panel (FRET assay)) EUB0000730a MMP8.
Test [10] concerns the target cAMP-dependent protein kinase catalytic subunit alpha (Homo sapiens, UniProt P17612). The experiment in a line: Selectivity interaction (Enzyme panel (Invitrogen)) EUB0000730a PRKACA.
Test [11] concerns the target T3, D(1B) dopamine receptor (Homo sapiens, UniProt P21918). Conditions: at 10 µM.
Test [12] deals with Cyclin-dependent kinase-like 3 (Homo sapiens) (UniProt Q8IVW4). Conditions: at 100 nM.
In another test the target is Aurora kinase A (Homo sapiens, UniProt O14965). As to the kind of experiment: Selectivity interaction (Enzyme panel (Invitrogen)) EUB0000730a STK6.
Test [13] deals with 5'-AMP-activated protein kinase catalytic subunit alpha-1 (Homo sapiens, UniProt Q13131). As to the kind of experiment: Selectivity interaction (Enzyme panel (Invitrogen)) EUB0000730a PRKAA1.
The target in a further test is Stromelysin-1 (Homo sapiens, UniProt P08254). The experiment in a line: Selectivity interaction (MMPs panel (FRET assay)) EUB0000730a MMP3.
For test [14], the target named is T3, D(1B) dopamine receptor. The experiment in a line: Selectivity interaction (GPCR panel (PDSP screen)) EUB0000730a DRD5.
The target in test [15] is Macrophage metalloelastase (Homo sapiens, UniProt P39900). The experiment in a line: Selectivity interaction (MMPs panel (FRET assay)) EUB0000730a MMP12.
Sequence of Macrophage metalloelastase (P39900 whole entry): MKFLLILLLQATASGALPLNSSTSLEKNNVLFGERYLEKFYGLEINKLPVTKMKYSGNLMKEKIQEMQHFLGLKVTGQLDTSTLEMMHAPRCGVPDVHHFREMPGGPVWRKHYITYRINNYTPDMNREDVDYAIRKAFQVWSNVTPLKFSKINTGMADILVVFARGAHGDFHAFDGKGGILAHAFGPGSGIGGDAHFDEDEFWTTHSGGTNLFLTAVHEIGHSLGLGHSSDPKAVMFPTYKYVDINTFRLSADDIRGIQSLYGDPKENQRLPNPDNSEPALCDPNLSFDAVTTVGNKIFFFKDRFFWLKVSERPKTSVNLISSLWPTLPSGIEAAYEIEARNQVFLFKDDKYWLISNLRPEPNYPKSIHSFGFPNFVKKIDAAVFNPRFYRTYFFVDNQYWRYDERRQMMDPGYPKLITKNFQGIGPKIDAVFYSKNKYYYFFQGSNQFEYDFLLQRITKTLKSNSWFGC
The target in test [16] is Dual specificity tyrosine-phosphorylation-regulated kinase 1B (Homo sapiens, UniProt Q9Y463). The experiment in a line: Selectivity interaction (KinomeScan (DiscoverX)) EUB0000545a DYRK1B. To be noted: at 1 µM.
Sequence of Dual specificity tyrosine-phosphorylation-regulated kinase 1B (Q9Y463 whole entry, looked up): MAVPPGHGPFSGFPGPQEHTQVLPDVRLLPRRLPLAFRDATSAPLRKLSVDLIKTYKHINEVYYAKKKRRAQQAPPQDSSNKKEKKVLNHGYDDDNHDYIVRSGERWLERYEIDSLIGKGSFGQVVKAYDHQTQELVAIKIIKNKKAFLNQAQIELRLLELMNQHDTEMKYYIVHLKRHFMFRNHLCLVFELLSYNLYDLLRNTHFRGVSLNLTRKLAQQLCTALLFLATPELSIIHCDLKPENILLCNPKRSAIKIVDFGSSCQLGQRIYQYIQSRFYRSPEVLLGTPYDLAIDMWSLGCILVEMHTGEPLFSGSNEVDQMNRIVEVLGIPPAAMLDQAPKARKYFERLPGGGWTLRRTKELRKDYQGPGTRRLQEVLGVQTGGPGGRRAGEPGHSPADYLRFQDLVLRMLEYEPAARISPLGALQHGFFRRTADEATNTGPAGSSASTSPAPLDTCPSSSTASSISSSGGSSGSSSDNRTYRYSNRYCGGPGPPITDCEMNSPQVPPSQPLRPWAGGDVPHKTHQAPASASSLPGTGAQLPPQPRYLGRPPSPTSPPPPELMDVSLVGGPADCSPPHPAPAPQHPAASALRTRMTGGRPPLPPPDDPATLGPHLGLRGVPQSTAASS
The target in the next test is Focal adhesion kinase 1 (Homo sapiens, UniProt Q05397). As to the kind of experiment: Selectivity interaction (KinomeScan (DiscoverX)) EUB0000545a PTK2. To be noted: at 1 µM.
Test [17] addresses Rho-associated protein kinase 1 (Homo sapiens) (UniProt Q13464). The experiment in a line: Selectivity interaction (KinomeScan (DiscoverX)) EUB0000545a ROCK1. Conditions: at 1 µM.
Test [18] concerns the target T4, Alpha-1D adrenergic receptor (Homo sapiens, UniProt P25100).
T4 sequence (P25100 whole entry): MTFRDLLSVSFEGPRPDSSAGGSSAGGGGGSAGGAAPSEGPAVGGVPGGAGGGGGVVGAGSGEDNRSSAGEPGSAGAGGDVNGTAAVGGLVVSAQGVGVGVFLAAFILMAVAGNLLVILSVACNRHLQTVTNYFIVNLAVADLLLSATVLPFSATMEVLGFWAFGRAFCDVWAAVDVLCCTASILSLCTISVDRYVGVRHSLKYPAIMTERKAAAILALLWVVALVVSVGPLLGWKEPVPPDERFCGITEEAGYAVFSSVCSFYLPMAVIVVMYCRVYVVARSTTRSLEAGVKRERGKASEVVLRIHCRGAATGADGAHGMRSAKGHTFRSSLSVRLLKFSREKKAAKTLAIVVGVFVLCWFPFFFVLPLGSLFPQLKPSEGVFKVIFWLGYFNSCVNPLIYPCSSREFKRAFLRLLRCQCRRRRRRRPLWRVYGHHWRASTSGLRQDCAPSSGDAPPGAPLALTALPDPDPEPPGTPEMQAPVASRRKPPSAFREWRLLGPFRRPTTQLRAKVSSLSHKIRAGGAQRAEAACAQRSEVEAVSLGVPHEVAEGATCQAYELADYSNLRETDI
The experiment in a line: Selectivity interaction (GPCR panel (PDSP screen)) EUB0000545a ADRA1D.

Test [19] deals with Polyunsaturated fatty acid 5-lipoxygenase (Homo sapiens) (UniProt P09917). The experiment in a line: (§3) Selectivity interaction (Eurofins-Panlabs screen) EUB0000542a ALOX5. Conditions: at 10 µM.
The target of test [20] is Tyrosine-protein kinase receptor TYRO3 (Homo sapiens) (UniProt Q06418). As to the kind of experiment: Selectivity interaction (KinomeScan (DiscoverX)) EUB0000542a TYRO3. To be noted: at 1 µM.
For test [21], the target named is Polyunsaturated fatty acid 5-lipoxygenase (Homo sapiens, UniProt P09917). The description is as §3.
Test [22] addresses Thromboxane-A synthase (Homo sapiens) (UniProt P24557). The experiment in a line: (§4) Selectivity interaction (Eurofins-Panlabs screen) EUB0000542a CYP5A1. To be noted: at 10 µM.
Test [23] deals with Tyrosine-protein kinase JAK1 (Homo sapiens, UniProt P23458). As to the kind of experiment: Selectivity interaction (KinomeScan (DiscoverX)) EUB0000542a JAK1@kinase 2. Conditions: at 1 µM.
Sequence of Tyrosine-protein kinase JAK1 (P23458 whole entry): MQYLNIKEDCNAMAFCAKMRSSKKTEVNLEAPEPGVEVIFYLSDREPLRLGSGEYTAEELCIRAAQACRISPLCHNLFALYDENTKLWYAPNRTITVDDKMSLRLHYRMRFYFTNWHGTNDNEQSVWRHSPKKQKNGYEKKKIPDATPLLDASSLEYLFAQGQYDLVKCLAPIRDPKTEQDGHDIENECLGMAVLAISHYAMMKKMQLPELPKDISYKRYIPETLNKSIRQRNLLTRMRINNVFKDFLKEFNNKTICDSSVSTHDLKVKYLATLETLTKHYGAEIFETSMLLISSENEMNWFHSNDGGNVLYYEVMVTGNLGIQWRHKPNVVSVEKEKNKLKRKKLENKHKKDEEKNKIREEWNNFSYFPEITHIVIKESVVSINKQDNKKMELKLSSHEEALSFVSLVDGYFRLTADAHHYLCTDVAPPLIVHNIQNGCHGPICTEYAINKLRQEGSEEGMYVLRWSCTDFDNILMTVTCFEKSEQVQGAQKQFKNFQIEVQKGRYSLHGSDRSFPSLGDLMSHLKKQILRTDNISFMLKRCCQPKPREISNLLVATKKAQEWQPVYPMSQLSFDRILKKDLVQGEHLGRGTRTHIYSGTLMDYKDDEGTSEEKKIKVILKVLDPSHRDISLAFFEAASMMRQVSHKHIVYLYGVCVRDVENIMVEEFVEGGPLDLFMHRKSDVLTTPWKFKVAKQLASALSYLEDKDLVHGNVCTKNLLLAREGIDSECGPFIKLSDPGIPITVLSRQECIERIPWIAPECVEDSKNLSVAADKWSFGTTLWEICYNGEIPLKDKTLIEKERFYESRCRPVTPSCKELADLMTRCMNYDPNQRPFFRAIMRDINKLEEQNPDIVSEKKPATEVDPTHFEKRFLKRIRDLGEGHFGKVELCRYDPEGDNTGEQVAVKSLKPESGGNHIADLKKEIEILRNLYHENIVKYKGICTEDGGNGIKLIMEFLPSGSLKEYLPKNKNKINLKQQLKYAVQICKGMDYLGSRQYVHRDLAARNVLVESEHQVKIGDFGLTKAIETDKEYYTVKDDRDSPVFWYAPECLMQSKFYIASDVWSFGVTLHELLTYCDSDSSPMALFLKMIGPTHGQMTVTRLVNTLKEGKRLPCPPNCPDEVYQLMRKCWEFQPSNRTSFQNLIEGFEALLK
For test [24], the target named is Serine/threonine-protein kinase Chk2 (Homo sapiens, UniProt O96017). The experiment in a line: Selectivity interaction (KinomeScan (DiscoverX)) EUB0000542a CHEK2. To be noted: at 1 µM.
For the next test, the target named is Thromboxane-A synthase (Homo sapiens, UniProt P24557). The description is as §4.

pIC50, pKi: −log10 of the molar value. A value given as a limit tells only on which side of the number the result lay.

T3 sequence (P21918 whole entry): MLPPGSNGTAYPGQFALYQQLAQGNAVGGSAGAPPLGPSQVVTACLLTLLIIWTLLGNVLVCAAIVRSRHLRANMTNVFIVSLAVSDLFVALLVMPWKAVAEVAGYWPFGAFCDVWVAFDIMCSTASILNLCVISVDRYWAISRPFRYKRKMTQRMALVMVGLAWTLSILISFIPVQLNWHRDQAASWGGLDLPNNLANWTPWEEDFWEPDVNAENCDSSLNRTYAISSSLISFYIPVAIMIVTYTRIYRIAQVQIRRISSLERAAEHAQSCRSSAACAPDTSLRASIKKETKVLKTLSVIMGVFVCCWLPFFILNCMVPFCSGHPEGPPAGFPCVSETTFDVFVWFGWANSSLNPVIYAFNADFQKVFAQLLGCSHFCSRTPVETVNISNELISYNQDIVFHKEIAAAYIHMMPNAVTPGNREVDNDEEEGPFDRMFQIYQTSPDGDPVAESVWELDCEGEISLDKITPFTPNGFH

With `CC1=C(C#N)C(c2ccc3c(c2)c(NC(=O)c2ccccc2C)nn3C)C(C#N)=C(C)N1` [BAY-974], the % of control in test [1] turned out to be 30%; in test [3], 27%; in [4], 24%; in test [5] it was 7.5%. Also, the pKi in test [2] and in test [6] was 7.68 each time.
With `CCOC(=O)c1cc2cc(-c3cc(C(=O)NCc4ccc(C(=O)O)cc4)nn3C)ccc2[nH]1` [BI 4394], the negative logarithm of the IC50 (pIC50) in test [7] was 5.96; against Interstitial collagenase, less than 4.66; against Matrilysin, less than 4.66; against Neutrophil collagenase it was less than 4.66; in test [10], 5.80; against Aurora kinase A it was 5.89. For the same molecule, the pIC50 is 5.72 in [13], less than 4.66 against Stromelysin-1 and less than 4.66 in test [15]. The results for the % of control in test [8], in test [9] and in test [12] were 43%, 0% and 0%, respectively. The % of inhibition at D(1B) dopamine receptor [11] was 60%. The same molecule had a pKi at D(1B) dopamine receptor [14] of less than 5.00.
In the case of `CC(=O)N1CCC(c2ccc(C(=O)NC3=NCCN3)cc2C(F)(F)F)CC1` [BI 0054], the values for the % of control (in test [16]; on Focal adhesion kinase 1; in test [17]) were 37%, 17% and 0.5%, respectively. For the same molecule, the negative logarithm of the Ki (pKi) in test [18] is less than 5.00.
With `CCOCCn1cc(C(=O)Nc2ccc(-n3nc(-c4cccnc4)cc3C(F)(F)F)cn2)ccc1=O` [BI 1935], the figures for the % of inhibition in test [19] and in [22] were 66% and 96%, respectively. Moreover, the values for the % of control in test [20], in test [23] and in test [24] were 0%, 37% and 0%, respectively. The pIC50 was 5.23 in test [21] and 6.88 at Thromboxane-A synthase.
